Results reported in patent US10597364B2, “Anthelmintic compounds, compositions and method of using thereof” (priority 2015, dated 2020).
Where two headings read alike, the source gives them in different places.

Legend:
Haemonchus contortus = assay: Method A: Haemonchus contortus L1 larval development/motility screen in microtitre plate; type: cell-based; settings: 96 h, read-out: motility inhibition
[1] = test system: microfilaria of Dirofilaria immitis; assay: Method C: microfilaria of Dirofilaria immitis motility screen; type: cell-based; settings: read-out: inhibition of the microfilaria's motility

SMILES | inhibition at 5 µM (Haemonchus contortus) | inhibition at 10 µM ([1]; 24 h) | further results
CC(C)(C)CC(=O)N1CCN(c2cc(O[C@H]3CC[C@H](Nc4ccc([N+](=O)[O-])c(C(F)(F)F)c4)CC3)ccn2)CC1 [Compound 33] | ≥ 90% | ≥ 90% | 
O=[N+]([O-])c1ccc(N[C@H]2CC[C@H](Oc3cncc(N4CCN(C/C=C/c5ccc(C(F)(F)F)cc5)CC4)c3)CC2)cc1C(F)(F)F [Compound 48] | ≥ 90% |  | inhibition at 5 ppm ([1]; 24 h): ≥ 90%
O=C(N1CCN(c2ccnc(O[C@H]3CC[C@H](Nc4ccc([N+](=O)[O-])c(C(F)(F)F)c4)CC3)c2)CC1)C(F)(F)F [Compound 58] | ≥ 90% |  | inhibition at 5 ppm ([1]; 5 ppm, 24 hours): ≥ 90%
N#Cc1ccc(N[C@H]2CC[C@H](Oc3ccnc(N4CCN(C(=O)CC5CCCC5)CC4)c3)CC2)cc1C(F)(F)F [Compound 177] | ≥ 90% | ≥ 90% | 
CCC(=O)N1CCN(c2cncc(O[C@H]3CC[C@H](Nc4ccc([N+](=O)[O-])c(C(F)(F)F)c4)CC3)c2)CC1 [Compound 64] | ≥ 90% |  | inhibition at 5 ppm ([1]; 24 h): ≥ 90%
O=[N+]([O-])c1ccc(N[C@H]2CC[C@H](Oc3cc(N4CCN(C(=S)Nc5ccc(C(F)(F)F)cc5)CC4)ccn3)CC2)cc1C(F)(F)F [Compound 68, 4-[2-[(4-[[4-nitro-3-(trifluoromethyl)phenyl]amino]cyclohexyl)oxy]pyridin-4-yl]-N-[4-(trifluoromethyl)phenyl]piperazine-1-carbothioamide] | ≥ 90% |  | inhibition at 5 ppm ([1]; 24 h): ≥ 90%
CCCOC(=O)N1CCN(c2cc(O[C@H]3CC[C@H](Nc4ccc(C#N)c(C(F)(F)F)c4)CC3)ccn2)CC1 [Compound 176] | ≥ 90% |  | 
CCCCN1CCN(c2cc(O[C@H]3CC[C@H](Nc4ccc([N+](=O)[O-])c(C(F)(F)F)c4)CC3)ccn2)CC1 [Compound 41] | ≥ 90% | ≥ 90% | 
O=[N+]([O-])c1ccc(N[C@H]2CC[C@H](Oc3cncc(N4CCN(C(=S)NC5CCCC5)CC4)c3)CC2)cc1C(F)(F)F [Compound 79] | ≥ 90% |  | inhibition at 5 ppm ([1]; 24 h): ≥ 90%
O=C(Oc1ccc(F)cc1)N1CCN(c2ccnc(O[C@H]3CC[C@H](Nc4ccc([N+](=O)[O-])c(C(F)(F)F)c4)CC3)c2)CC1 [Compound 30] | ≥ 90% |  | inhibition at 5 ppm ([1]; 24 h): ≥ 90%
CCCC(=O)N1CCN(c2cc(O[C@H]3CC[C@H](Nc4ccc([N+](=O)[O-])c(C(F)(F)F)c4)CC3)ccn2)CC1 [Compound 40] | ≥ 90% |  | inhibition at 10 µM ([1]; 10 μM, 24 hours): ≥ 90%
O=C(Cc1ccc(C(F)(F)F)cc1)N1CCN(c2ccnc(O[C@H]3CC[C@H](Nc4ccc([N+](=O)[O-])c(C(F)(F)F)c4)CC3)c2)CC1 [Compound 61] | ≥ 90% |  | inhibition at 5 ppm ([1]; 24 h): ≥ 90%
CC(C)(C)OC(=O)N1CCN(c2ccc(O[C@H]3CC[C@H](Nc4ccc([N+](=O)[O-])c(C(F)(F)F)c4)CC3)cn2)CC1 [Compound 83] | ≥ 90% |  | inhibition at 5 ppm ([1]; 24 h): ≥ 90%
CC(C)(C)CC(=O)N1CCN(c2ccnc(O[C@H]3CC[C@H](Nc4ccc([N+](=O)[O-])c(C(F)(F)F)c4)CC3)c2)CC1 [Compound 25] | ≥ 90% | ≥ 90% | 
CCCC(=O)N1CCN(c2ccnc(O[C@H]3CC[C@H](Nc4ccc([N+](=O)[O-])c(C(F)(F)F)c4)CC3)c2)CC1 [Compound 39] | ≥ 90% |  | inhibition at 5 ppm ([1]; 24 h): ≥ 90%
CC(C)(C)OC(=O)N1CCN(c2ccnc(O[C@H]3CC[C@H](Nc4ccc(C#N)c(C(F)(F)F)c4)CC3)c2)CC1 [Compound 59] | ≥ 90% | ≥ 90% | 
CC(C)(C)CN1CCN(c2cncc(O[C@H]3CC[C@H](Nc4ccc([N+](=O)[O-])c(C(F)(F)F)c4)CC3)c2)CC1 [Compound 54] | ≥ 90% |  | inhibition at 10 µM ([1]; 10 μM, 24 hours): ≥ 90%
CCC(=O)N1CCN(c2cc(O[C@H]3CC[C@H](Nc4ccc([N+](=O)[O-])c(C(F)(F)F)c4)CC3)ccn2)CC1 [Compound 60] | ≥ 90% |  | inhibition at 10 µM ([1]; 10 μM, 24 hours): ≥ 90%
CCCN1CCN(c2cncc(O[C@H]3CC[C@H](Nc4ccc([N+](=O)[O-])c(C(F)(F)F)c4)CC3)c2)CC1 [Compound 77] | ≥ 90% | ≥ 90% | 
COC(=O)N1CCN(c2cc(O[C@H]3CC[C@H](Nc4ccc([N+](=O)[O-])c(C(F)(F)F)c4)CC3)ccn2)CC1 [Compound 75] | ≥ 90% |  | inhibition at 10 µM ([1]; 10 μM, 24 hours): ≥ 90%
O=[N+]([O-])c1ccc(N[C@H]2CC[C@H](Oc3cncc(N4CCN(c5ccc6cc(C(F)(F)F)ccc6n5)CC4)c3)CC2)cc1C(F)(F)F [Compound 90] | ≥ 90% |  | 
CC(C)(C)CN1CCN(c2cc(O[C@H]3CC[C@H](Nc4ccc([N+](=O)[O-])c(C(F)(F)F)c4)CC3)ccn2)CC1 [Compound 67] | ≥ 90% |  | inhibition at 10 µM ([1]; 10 μM, 24 hours): ≥ 90%
N#Cc1ccc(N[C@H]2CC[C@H](Oc3cncc(N4CCN(Cc5ccc(C(F)(F)F)cc5)CC4)c3)CC2)cc1C(F)(F)F [Compound 181] | ≥ 90% | ≥ 90% | 
CCCN1CCN(c2ccnc(O[C@H]3CC[C@H](Nc4ccc([N+](=O)[O-])c(C(F)(F)F)c4)CC3)c2)CC1 [Compound 87] | ≥ 90% | ≥ 90% | 

SMILES | inhibition at 5 µM (Haemonchus contortus) | inhibition at 10 µM ([1]; 24 h) | further results
O=[N+]([O-])c1ccc(N[C@H]2CC[C@H](Oc3cc(N4CCN(CC5CCCC5)CC4)ccn3)CC2)cc1C(F)(F)F [Compound 47] | ≥ 90% | ≥ 90% | 
CCOCCC(=O)N1CCN(c2cc(O[C@H]3CC[C@H](Nc4ccc([N+](=O)[O-])c(C(F)(F)F)c4)CC3)ccn2)CC1 [Compound 70] | ≥ 90% | ≥ 90% | 
CC(C)(C)NC(=O)N1CCN(c2cncc(O[C@H]3CC[C@H](Nc4ccc([N+](=O)[O-])c(C(F)(F)F)c4)CC3)c2)CC1 [Compound 66] | ≥ 90% |  | inhibition at 5 ppm ([1]; 24 h): ≥ 90%
O=C(NC1CCCC1)N1CCN(c2cncc(O[C@H]3CC[C@H](Nc4ccc([N+](=O)[O-])c(C(F)(F)F)c4)CC3)c2)CC1 [Compound 82] | ≥ 90% | ≥ 90% | 
COCCOCC(=O)N1CCN(c2cc(O[C@H]3CC[C@H](Nc4ccc([N+](=O)[O-])c(C(F)(F)F)c4)CC3)ccn2)CC1 [Compound 72] | ≥ 90% | ≥ 90% | 
O=C(OC1CCCC1)N1CCN(c2cncc(O[C@H]3CC[C@H](Nc4ccc([N+](=O)[O-])c(C(F)(F)F)c4)CC3)c2)CC1 [Compound 196, cyclopentyl 4-(5-[[4-[[4-nitro-3-(trifluoromethyl)phenyl]amino]cyclohexyl]oxy]pyridin-3-yl)piperazine-1-carboxylate] | ≥ 90% |  | inhibition at 5 ppm ([1]; 24 h): ≥ 90%
CCNC(=O)N1CCN(c2ccnc(O[C@H]3CC[C@H](Nc4ccc([N+](=O)[O-])c(C(F)(F)F)c4)CC3)c2)CC1 [Compound 96] | ≥ 90% | ≥ 90% | 
O=[N+]([O-])c1ccc(N[C@H]2CC[C@H](Oc3ccnc(N4CCN(C/C=C/c5ccc(C(F)(F)F)cc5)CC4)c3)CC2)cc1C(F)(F)F [Compound 76] | ≥ 90% |  | inhibition at 5 ppm ([1]; 24 h): ≥ 90%
O=[N+]([O-])c1ccc(N[C@H]2CC[C@H](Oc3ccc(N4CCN(C/C=C/c5ccc(C(F)(F)F)cc5)CC4)nc3)CC2)cc1C(F)(F)F [Compound 80] | ≥ 90% |  | inhibition at 1 ppm ([1]; 24 h): ≥ 90%; inhibition at 5 ppm ([1]; 24 h): ≥ 90%
O=C(Nc1ccc(F)cc1)N1CCN(c2cncc(O[C@H]3CC[C@H](Nc4ccc([N+](=O)[O-])c(C(F)(F)F)c4)CC3)c2)CC1 [Compound 106] | ≥ 90% |  | inhibition at 10 µM ([1]; 10 μM, 24 hours): ≥ 90%
CC(C)(C)OC(=O)N1CCN(c2cncc(O[C@H]3CC[C@H](Nc4ccc(C#N)c(C(F)(F)F)c4)CC3)c2)CC1 [Compound 50] | ≥ 90% |  | 
CC(C)(C)NC(=O)N1CCN(c2cc(O[C@H]3CC[C@H](Nc4ccc([N+](=O)[O-])c(C(F)(F)F)c4)CC3)ccn2)CC1 [Compound 49] | ≥ 90% | ≥ 90% | 
O=[N+]([O-])c1ccc(N[C@H]2CC[C@H](Oc3ccnc(N4CCN(Cc5nc6cc(C(F)(F)F)ccc6s5)CC4)c3)CC2)cc1C(F)(F)F [Compound 86] | ≥ 90% |  | inhibition at 5 ppm ([1]; 24 h): ≥ 90%
CCCCC(=O)N1CCN(c2cncc(O[C@H]3CC[C@H](Nc4ccc([N+](=O)[O-])c(C(F)(F)F)c4)CC3)c2)CC1 [Compound 19, 1-[4-(5-[[4-[[4-nitro-3-(trifluoromethyl)phenyl]amino]cyclohexyl]oxy]pyridin-3-yl)piperazin-1-yl]pentan-1-one] | ≥ 90% |  | 
O=C(Cc1ccc(F)cc1)N1CCN(c2cc(O[C@H]3CC[C@H](Nc4ccc([N+](=O)[O-])c(C(F)(F)F)c4)CC3)ccn2)CC1 [Compound 46] | ≥ 90% | ≥ 90% | 
O=C(CC1CCCC1)N1CCN(c2ccnc(O[C@H]3CC[C@H](Nc4ccc(S(=O)(=O)C(F)(F)F)cc4)CC3)c2)CC1 [Compound 163] | ≥ 90% |  | 
CC(C)(C)CN1CCN(c2ccnc(O[C@H]3CC[C@H](Nc4ccc([N+](=O)[O-])c(C(F)(F)F)c4)CC3)c2)CC1 [Compound 84] | ≥ 90% |  | 
O=C(Nc1ccc(C(F)(F)F)cc1)N1CCN(c2cncc(O[C@H]3CC[C@H](Nc4ccc([N+](=O)[O-])c(C(F)(F)F)c4)CC3)c2)CC1 [Compound 94] | ≥ 90% |  | 
CCCOC(=O)N1CCN(c2ccnc(O[C@H]3CC[C@H](Nc4ccc(C#N)c(C(F)(F)F)c4)CC3)c2)CC1 [Compound 74] | ≥ 90% |  | 
O=C(CC1CCCC1)N1CCN(c2cncc(O[C@H]3CC[C@H](Nc4ccc(S(=O)(=O)C(F)(F)F)cc4)CC3)c2)CC1 [Compound 193] | ≥ 90% |  | 
N#Cc1ccc(N[C@H]2CC[C@H](Oc3cncc(N4CCN(C(=O)CC5CCCC5)CC4)c3)CC2)cc1C(F)(F)F [Compound 180] | ≥ 90% |  | 
O=[N+]([O-])c1ccc(N[C@H]2CC[C@H](Oc3cncc(N4CCN(C(=S)Nc5ccc(C(F)(F)F)cc5)CC4)c3)CC2)cc1C(F)(F)F [Compound 88] | ≥ 90% |  | 
O=[N+]([O-])c1ccc(N[C@H]2CC[C@H](Oc3cncc(N4CCN(S(=O)(=O)C(F)(F)F)CC4)c3)CC2)cc1C(F)(F)F [Compound 63] | ≥ 90% |  | 
